Measurements from PMC10142861, “Synthesis, Antiproliferative Effect and In Silico LogP Prediction of BIM-23052 Analogs Containing Tyr Instead of Phe” (Pharmaceutics, 2023).
Several values for one entry are separate records, joined by “and”; a condition that tells them apart may be missing. Identical values can stand only once. Like-named read-outs stand apart in the source and are kept apart here. Square brackets hold non-standard residues; d marks the D form. Peptide text beside a SMILES is read from it.

How the values were obtained:
in vitro = conditions: mouse
From the text: (§1) The breast cancer cells MDA-MB-231 (ATCC: HTB-26) and MCF-7 (ATCC: HTB-22) were used to determine antiproliferative activity under in vitro conditions. The breast epithelial cells (MCF-10A, ATCC: CRL-10317) and mouse embryonic fibroblasts (BALB/c 3T3 clone A31, ATCC: CCL-163) were used as control. Cell cultures were purchased from American Type Cultures Collection (ATCC, Manassas, Virginia, USA). In cell culture, growth medium DMEM-high glucose, 10% (v/v) FBS and antibiotics (Sigma-Aldrich, Schnelldorf, Germany) were used. Cells were incubated at 37 °C, 5% CO2 and 95% humidity. Cells were grown in plastic flasks with a surface of 75 cm^2 (Deltalab S.L., Barcelona, Spain).
A safety test was performed on the method BALB/c 3T3 Neutral Red Uptake cytotoxicity Assay. The data generated from the in vitro cytotoxicity assay can be used to determine the safety level of the investigated substances and can predict the starting doses for in vivo toxicity assays. The cells (BALB/c 3T3, clone A31) were seeded at 1 × 10^4 cells/100 μL/well in 96-well flat-bottomed microplates. The plates were placed in a thermostat at 37 °C, 5% CO2 and 95% humidity for 24 h. Peptides were pre-dissolved in DMSO and then culture medium (DMEM) was added. The cells were treated with the BIM-23052 analogs at concentrations from […]. The treated cell culture was incubated for 24 h in a thermostat under standard conditions. The microplates were then washed twice with PBS, and Neutral Red Desorb (1% acetic acid/50% ethanol/49% water) was added. Absorbance was measured by a microplate reader at a wavelength of 540 nm.
The safety test of BIM-23052 analogues was carried out by Neutral Red Uptake cytotoxicity Assay. Cell cultures were incubated with the tested peptide analogs for 24 h.
Mean values are presented ± SD from three independent experiments, n = 6.

[1] = tested on: MDA-MB-231 breast cancer cells; conditions: for IC50: 72 h
From the text: as §1
(§2) Cell viability was determined by a colorimetric MTT-dye reduction assay. The method is based on an enzyme reaction leading to the reduction of […] (MTT) to formazan crystals. The concentration of formazan, which is directly proportional to cell viability, was determined by a spectrophotometric method. Cells (MCF-7, MDA-MB-231 and MCF-10A) were seeded at a 1 × 10^3 cells/100 µL/well in 96-well microplates. The plates were placed in a thermostat under standard conditions for 24 h. Cells were then treated with the peptide analogs at concentrations ranging from 7.5 to 2000 μm. The cells were then incubated in a thermostat for 72 h. The formazan concentration was measured spectrophotometrically by a microplate reader at a wavelength of 540 nm. The antiproliferative potential of BIM-23052 analogs was presented as IC50 values, calculated using GraphPad Prizm Software (San Diego, CA, USA).
(§3) The antiproliferative activity of BIM-23052 analogs was studied by MTT assay. The normal and tumor cell cultures were incubated with the peptide analogs with a concentration range from 7.5 to 2000 μm for 72 h. The antiproliferative activity was determined (Figure 3 and Table 3).
(§4) Figure 3 Dose–response curves for antiproliferative activity of BIM-23052 analogs determined in MCF-10A (ATCC® CRL-10317^TM), MCF-7 (ATCC® HTB-22^TM) and MDA-MB-231 (ATCC® HTB-26^TM) cell lines. Mean values are presented ± SD from three independent experiments, n = 6.

[2] = tested on: MCF-7 breast cancer cells; conditions: for IC50: 72 h
From the text: as §1, §2, §3, §4

[3] = tested on: MCF-10A breast epithelial cells; conditions: 72 h
From the text: as §1, §2, §3, §4

[4] = read-out: Mean IC50 ± SD, Antiproliferative Effect, MDA-MB-231, MTT, 7.5 to 2000 μm, absorbance 540 nm, mean ± SD, three independent experiments, n = 6
[5] = read-out: Mean IC50 ± SD, Antiproliferative Effect, MCF-7, MTT, 7.5 to 2000 μm, absorbance 540 nm, mean ± SD, three independent experiments, n = 6
[6] = read-out: Mean IC50 ± SD, Antiproliferative Effect, MCF-10A, MTT, 7.5 to 2000 μm, absorbance 540 nm, mean ± SD, three independent experiments, n = 6
[7] = SI = IC50 MCF-10A/IC50 MDA-MB-231
[8] = BALB/c 3T3 clone A31 mouse embryonic fibroblasts

Row | IC50 at 24 h (in vitro) | IC50 [1] [µM] | IC50 [2] [µM] | Compound | Selectivity index SI, MDA-MB-231 ([1]; 2 h) | Selectivity index SI, MCF-7 ([2]; 2 h) | IC50 [3] [µM] | IC50 [1, 4] [µM] | IC50 [2, 5] [µM] | IC50 [3, 6] [µM] | Selectivity index SI, MDA-MB-231 [1, 7] | Selectivity index SI, MCF-7 ([2]; SI = IC50 MCF-10A/IC50 MCF-7) | IC50 at 24 h (in vitro; [8]) [µM]
1 | 483 ± 32.1 µM | 335 ± 15.4 | 120 ± 6.53 | C[C@@H](O)[C@H](NC(=O)[C@H](Cc1ccccc1)NC(=O)[C@@H](NC(=O)[C@H](CCCCN)NC(=O)[C@@H](Cc1c[nH]c2ccccc12)NC(=O)[C@H](Cc1ccccc1)NC(=O)[C@H](Cc1ccccc1)NC(=O)[C@H](N)Cc1ccccc1)[C@@H](C)O)C(N)=O [BIM-23052, D-Phe-Phe-Phe-D-Trp-Lys-Thr-Phe-Thr-NH2] (H-[dF]FF[dW]KTFT-NH2) | 0.61 | 1.7 | 204 ± 6.32 | – | – | – | – | – | –
2 | 1200 ± 100 µM | 798 ± 24.4 | 426 ± 23.9 | C[C@@H](O)[C@H](NC(=O)[C@H](Cc1ccc(O)cc1)NC(=O)[C@@H](NC(=O)[C@H](CCCCN)NC(=O)[C@@H](Cc1c[nH]c2ccccc12)NC(=O)[C@H](Cc1ccc(O)cc1)NC(=O)[C@H](Cc1ccc(O)cc1)NC(=O)[C@H](N)Cc1ccccc1)[C@@H](C)O)C(N)=O [D61, D-Phe-Tyr^2-Tyr^3-D-Trp-Lys-Thr-Tyr^7-Thr-NH2] (H-[dF]YY[dW]KTYT-NH2) | 0.69 | 1.3 | 555 ± 21.3 | – | – | – | – | – | > 1000
3 | 975 ± 81.7 µM | 849 ± 21.2 | 527 ± 54.2 | C[C@@H](O)[C@H](NC(=O)[C@H](Cc1ccc(O)cc1)NC(=O)[C@@H](NC(=O)[C@H](CCCCN)NC(=O)[C@@H](Cc1c[nH]c2ccccc12)NC(=O)[C@H](Cc1ccc(O)cc1)NC(=O)[C@H](Cc1ccc(O)cc1)NC(=O)[C@H](N)Cc1ccc(O)cc1)[C@@H](C)O)C(N)=O [D91, D-Tyr^1-Tyr^2-Tyr^3-D-Trp-Lys-Thr-Tyr^7-Thr-NH2] (H-[dY]YY[dW]KTYT-NH2) | 0.64 | 1.02 | 540 ± 27.2 | – | – | – | – | – | –
4 | 1400 ± 52.3 µM | 1400 ± 20 | 717 ± 20.8 | C[C@@H](O)[C@H](NC(=O)[C@H](Cc1ccccc1)NC(=O)[C@@H](NC(=O)[C@H](CCCCN)NC(=O)[C@@H](Cc1c[nH]c2ccccc12)NC(=O)[C@H](Cc1ccc(O)cc1)NC(=O)[C@H](Cc1ccc(O)cc1)NC(=O)[C@H](N)Cc1ccccc1)[C@@H](C)O)C(N)=O [D101, D-Phe-Tyr^2-Tyr^3-D-Trp-Lys-Thr-Phe-Thr-NH2] (H-[dF]YY[dW]KTFT-NH2) | 0.43 | 0.84 | 604 ± 24.7 | – | – | – | – | – | > 1000
5 | 483 ± 33.9 µM | 241 ± 13.4 | 235 ± 14.3 | C[C@@H](O)[C@H](NC(=O)[C@H](Cc1ccc(O)cc1)NC(=O)[C@@H](NC(=O)[C@H](CCCCN)NC(=O)[C@@H](Cc1c[nH]c2ccccc12)NC(=O)[C@H](Cc1ccccc1)NC(=O)[C@H](Cc1ccccc1)NC(=O)[C@H](N)Cc1ccccc1)[C@@H](C)O)C(N)=O [DD8, D-Phe-Phe-Phe-D-Trp-Lys-Thr-Tyr^7-Thr-NH2] (H-[dF]FF[dW]KTYT-NH2) | 0.67 | 0.69 | 161 ± 7.97 | – | – | – | – | – | –

More lines, now with the values behind:

Row | Compound | IC50 at 24 h (in vitro) | IC50 [1] [µM] | IC50 [2] [µM] | Selectivity index SI, MDA-MB-231 ([1]; 2 h) | Selectivity index SI, MCF-7 ([2]; 2 h) | IC50 [3] [µM] | IC50 [1, 4] [µM] | IC50 [2, 5] [µM] | IC50 [3, 6] [µM] | Selectivity index SI, MDA-MB-231 [1, 7] | Selectivity index SI, MCF-7 ([2]; SI = IC50 MCF-10A/IC50 MCF-7) | IC50 at 24 h (in vitro; [8]) [µM]
6 | N.N.[Cl][Pt][Cl] [Cisplatin, reference compound] | – | – | – | – | – | – | 6.94 ± 0.47 | 43.1 ± 3.16 | 64.3 ± 2.11 | – | – | –
7 | C[C@@H](O)[C@H](NC(=O)[C@H](Cc1ccccc1)NC(=O)[C@@H](NC(=O)[C@H](CCCCN)NC(=O)[C@@H](Cc1c[nH]c2ccccc12)NC(=O)[C@H](Cc1ccc(O)cc1)NC(=O)[C@H](Cc1ccc(O)cc1)NC(=O)[C@@H](N)Cc1ccc(O)cc1)[C@@H](C)O)C(N)=O [D6, L-Tyr^1-Tyr^2-Tyr^3-D-Trp-Lys-Thr-Phe-Thr-NH2] (H-YYY[dW]KTFT-NH2) | > 1000 µM and 1320 µM | – | – | – | – | – | 291 ± 12.7 | 359 ± 16.1 | 191 ± 6.8 | 0.66 | 0.53 | –
8 | C[C@@H](O)[C@H](NC(=O)[C@H](Cc1ccc(O)cc1)NC(=O)[C@@H](NC(=O)[C@H](CCCCN)NC(=O)[C@@H](Cc1c[nH]c2ccccc12)NC(=O)[C@H](Cc1ccccc1)NC(=O)[C@H](Cc1ccc(O)cc1)NC(=O)[C@@H](N)Cc1ccc(O)cc1)[C@@H](C)O)C(N)=O [D7, L-Tyr^1-Tyr^2-Phe-D-Trp-Lys-Thr-Tyr^7-Thr-NH2] (H-YYF[dW]KTYT-NH2) | 737 ± 20 µM | – | – | – | – | – | 782 ± 19 | 403 ± 24.9 | 433 ± 23.2 | 0.55 | 1.07 | –
9 | C[C@@H](O)[C@H](NC(=O)[C@H](Cc1ccc(O)cc1)NC(=O)[C@@H](NC(=O)[C@H](CCCCN)NC(=O)[C@@H](Cc1c[nH]c2ccccc12)NC(=O)[C@H](Cc1ccc(O)cc1)NC(=O)[C@H](Cc1ccc(O)cc1)NC(=O)[C@@H](N)Cc1ccc(O)cc1)[C@@H](C)O)C(N)=O [D9, L-Tyr^1-Tyr^2-Tyr^3-D-Trp-Lys-Thr-Tyr^7-Thr-NH2] (H-YYY[dW]KTYT-NH2) | > 1000 µM and 1430 µM | – | – | – | – | – | 1410 ± 19.1 | 477 ± 31.4 | 395 ± 15.3 | 0.28 | 0.83 | –
10 | C[C@@H](O)[C@H](NC(=O)[C@H](Cc1ccccc1)NC(=O)[C@@H](NC(=O)[C@H](CCCCN)NC(=O)[C@@H](Cc1c[nH]c2ccccc12)NC(=O)[C@H](Cc1ccccc1)NC(=O)[C@H](Cc1ccccc1)NC(=O)[C@H](N)Cc1ccc(O)cc1)[C@@H](C)O)C(N)=O [D11, D-Tyr^1-Phe-Phe-D-Trp-Lys-Thr-Phe-Thr-NH2] (H-[dY]FF[dW]KTFT-NH2) | > 1000 µM and 1630 µM | – | – | – | – | – | 1720 ± 58.6 | 873 ± 26.6 | 864 ± 52.3 | 0.50 | 0.99 | –
